ChEMBL document CHEMBL4422655, “Osthenol, a prenylated coumarin, as a monoamine oxidase A inhibitor with high selectivity” (Bioorg Med Chem Lett, 2019)

How the values were obtained:
[1] = biological target: T1, Amine oxidase [flavin-containing] A (Homo sapiens, UniProt P21397); assay: Reversible inhibition of human recombinant MAO-A expressed in baculovirus infected BTI insect cells assessed as residual activity at 2 uM incubated for 30 mins using kynuramine as substrate by spectrophotometric analysis relative to control; conditions: 0.5 h, read-out: Activity
T1 sequence (P21397 whole entry): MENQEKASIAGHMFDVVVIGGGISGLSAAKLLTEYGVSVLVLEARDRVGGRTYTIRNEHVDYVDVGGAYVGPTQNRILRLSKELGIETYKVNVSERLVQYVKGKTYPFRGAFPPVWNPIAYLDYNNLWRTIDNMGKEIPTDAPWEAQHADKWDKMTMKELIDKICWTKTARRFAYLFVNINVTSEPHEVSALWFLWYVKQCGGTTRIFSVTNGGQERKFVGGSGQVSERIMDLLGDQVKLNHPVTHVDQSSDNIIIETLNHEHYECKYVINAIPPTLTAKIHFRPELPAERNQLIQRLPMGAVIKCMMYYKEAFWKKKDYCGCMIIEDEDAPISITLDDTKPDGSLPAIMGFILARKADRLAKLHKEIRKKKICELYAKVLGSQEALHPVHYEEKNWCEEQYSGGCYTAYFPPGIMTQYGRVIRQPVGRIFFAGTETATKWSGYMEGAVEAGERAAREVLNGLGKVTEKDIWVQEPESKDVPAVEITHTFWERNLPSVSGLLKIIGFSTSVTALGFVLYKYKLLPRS

[2] = biological target: T1, Amine oxidase [flavin-containing] A; assay: Reversible inhibition of human recombinant MAO-A expressed in baculovirus infected BTI insect cells assessed as residual activity at 2 uM incubated for 30 mins followed by dialysis using kynuramine as substrate by spectrophotometric analysis relative to control; conditions: 0.5 h, read-out: Activity
[3] = biological target: T1, Amine oxidase [flavin-containing] A; assay: Inhibition of human MAO-A using kynuramine as substrate after 30 mins by spectrophotometric analysis
[4] = species: Homo sapiens; assay: Selectivity index, ratio of IC50 for human recombinant MAO-B to IC50 for human recombinant MAO-A
[5] = biological target: T1, Amine oxidase [flavin-containing] A; assay: Inhibition of human recombinant MAO-A expressed in baculovirus infected BTI-TN-5B1-4 insect cells using p-tyramine as substrate after 15 mins by resorufin dye-based spectrometric analysis
[6] = biological target: T1, Amine oxidase [flavin-containing] A; assay: Inhibition of human recombinant MAO-A expressed in baculovirus infected BTI insect cells using kynuramine as substrate assessed as residual activity at 10 uM after 20 mins by spectrophotometric analysis relative to control; conditions: read-out: Activity
[7] = biological target: T2, Amine oxidase [flavin-containing] B (Homo sapiens, UniProt P27338); assay: Inhibition of human recombinant MAO-B expressed in baculovirus infected BTI insect cells using benzylamine as substrate assessed as residual activity at 10 uM after 30 mins by spectrophotometric analysis relative to control; conditions: 0.5 h, read-out: Activity
T2 sequence (P27338 whole entry): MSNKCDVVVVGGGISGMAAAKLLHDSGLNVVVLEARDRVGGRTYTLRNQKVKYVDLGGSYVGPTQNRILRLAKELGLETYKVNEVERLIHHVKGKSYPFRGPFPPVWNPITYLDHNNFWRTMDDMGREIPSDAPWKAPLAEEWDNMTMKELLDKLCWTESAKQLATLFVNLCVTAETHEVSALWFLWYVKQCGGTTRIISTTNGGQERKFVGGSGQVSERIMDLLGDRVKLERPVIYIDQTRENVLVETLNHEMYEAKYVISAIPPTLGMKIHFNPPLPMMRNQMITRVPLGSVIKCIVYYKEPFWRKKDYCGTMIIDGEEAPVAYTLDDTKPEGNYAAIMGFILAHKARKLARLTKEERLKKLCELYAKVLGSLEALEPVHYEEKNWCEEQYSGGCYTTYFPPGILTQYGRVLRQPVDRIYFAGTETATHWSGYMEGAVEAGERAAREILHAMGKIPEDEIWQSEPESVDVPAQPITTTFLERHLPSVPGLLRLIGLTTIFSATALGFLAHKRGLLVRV

[8] = biological target: T2, Amine oxidase [flavin-containing] B; assay: biochemical; assay type: cell-based
[9] = biological target: Acetylcholinesterase (Electrophorus electricus, UniProt O42275); assay: Inhibition of electric eel AChE using acetylthiocholine iodide as substrate preincubated for 15 mins followed by substrate addition by Ellman's method
Chain of Acetylcholinesterase (O42275 whole entry): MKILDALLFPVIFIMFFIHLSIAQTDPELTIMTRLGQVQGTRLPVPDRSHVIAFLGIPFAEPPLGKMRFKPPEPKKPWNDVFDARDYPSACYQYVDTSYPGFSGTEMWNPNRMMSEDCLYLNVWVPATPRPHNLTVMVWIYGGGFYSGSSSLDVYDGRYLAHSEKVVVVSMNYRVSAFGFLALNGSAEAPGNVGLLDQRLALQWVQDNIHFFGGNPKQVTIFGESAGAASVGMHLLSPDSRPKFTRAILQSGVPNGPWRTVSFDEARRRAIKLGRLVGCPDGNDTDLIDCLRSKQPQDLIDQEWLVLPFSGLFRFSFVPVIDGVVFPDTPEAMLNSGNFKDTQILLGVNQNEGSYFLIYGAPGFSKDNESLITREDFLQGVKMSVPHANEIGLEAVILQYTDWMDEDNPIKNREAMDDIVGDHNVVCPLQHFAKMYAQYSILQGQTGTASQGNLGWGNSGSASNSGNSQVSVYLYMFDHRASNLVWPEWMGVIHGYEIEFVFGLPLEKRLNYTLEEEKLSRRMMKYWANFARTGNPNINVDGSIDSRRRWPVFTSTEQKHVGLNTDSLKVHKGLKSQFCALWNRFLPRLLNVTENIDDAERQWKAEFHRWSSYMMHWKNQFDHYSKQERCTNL

[10] = biological target: T1, Amine oxidase [flavin-containing] A; assay: biochemical
[11] = biological target: T1, Amine oxidase [flavin-containing] A; assay: Irreversible inhibition of human recombinant MAO-A expressed in baculovirus infected BTI insect cells assessed as residual activity at 0.01 uM incubated for 30 mins using kynuramine as substrate by spectrophotometric analysis relative to control; conditions: 0.5 h, read-out: Activity
[12] = biological target: T1, Amine oxidase [flavin-containing] A; assay: Irreversible inhibition of human recombinant MAO-A expressed in baculovirus infected BTI insect cells assessed as residual activity at 0.01 uM incubated for 30 mins followed by dialysis using kynuramine as substrate by spectrophotometric analysis relative to control; conditions: 0.5 h, read-out: Activity
[13] = biological target: T3, Amine oxidase [flavin-containing] A (Mus musculus, UniProt Q64133); assay: Inhibition of MAO-A in mouse brain mitochondrial fraction using kynuramine as substrate after 30 mins by fluorometric analysis
T3 sequence (Q64133 whole entry): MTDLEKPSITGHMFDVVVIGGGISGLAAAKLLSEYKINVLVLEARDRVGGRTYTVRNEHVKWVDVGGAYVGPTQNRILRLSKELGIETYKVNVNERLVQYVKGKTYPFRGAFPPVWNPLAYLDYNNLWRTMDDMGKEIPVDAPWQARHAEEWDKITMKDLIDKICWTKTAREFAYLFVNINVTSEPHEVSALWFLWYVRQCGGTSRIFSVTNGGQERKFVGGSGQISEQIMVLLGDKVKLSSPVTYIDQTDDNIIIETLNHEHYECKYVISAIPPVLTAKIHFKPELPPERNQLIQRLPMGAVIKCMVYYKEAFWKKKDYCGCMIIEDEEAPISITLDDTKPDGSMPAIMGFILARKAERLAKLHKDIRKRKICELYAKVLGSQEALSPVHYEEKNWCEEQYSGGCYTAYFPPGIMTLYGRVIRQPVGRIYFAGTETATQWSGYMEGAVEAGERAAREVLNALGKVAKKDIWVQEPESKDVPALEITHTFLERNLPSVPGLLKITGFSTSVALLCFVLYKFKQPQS

[14] = species: Homo sapiens; assay: Selectivity index, ratio of IC50 for human recombinant MAO-B expressed in baculovirus infected BTI insect cells to IC50 for human recombinant MAO-A expressed in baculovirus infected BTI insect cells
[15] = biological target: T1, Amine oxidase [flavin-containing] A; assay: Reversible inhibition of human recombinant MAO-A expressed in baculovirus infected BTI insect cells assessed as residual activity at 1.5 uM incubated for 30 mins using kynuramine as substrate by spectrophotometric analysis relative to control; conditions: 0.5 h, read-out: Activity
[16] = biological target: T1, Amine oxidase [flavin-containing] A; assay: Reversible inhibition of human recombinant MAO-A expressed in baculovirus infected BTI insect cells assessed as residual activity at 1.5 uM incubated for 30 mins followed by dialysis using kynuramine as substrate by spectrophotometric analysis relative to control; conditions: 0.5 h, read-out: Activity
[17] = biological target: T1, Amine oxidase [flavin-containing] A; assay: biochemical; remark: listed apart in the source
[18] = biological target: T4, Amine oxidase [flavin-containing] A (Rattus norvegicus, UniProt P21396); assay: Inhibition of MAO-A in Sprague-Dawley rat brain mitochondrial fraction after 10 mins in presence of [14C]5-hydroxytryptamine by liquid scintillation analysis
T4 sequence (P21396 whole entry): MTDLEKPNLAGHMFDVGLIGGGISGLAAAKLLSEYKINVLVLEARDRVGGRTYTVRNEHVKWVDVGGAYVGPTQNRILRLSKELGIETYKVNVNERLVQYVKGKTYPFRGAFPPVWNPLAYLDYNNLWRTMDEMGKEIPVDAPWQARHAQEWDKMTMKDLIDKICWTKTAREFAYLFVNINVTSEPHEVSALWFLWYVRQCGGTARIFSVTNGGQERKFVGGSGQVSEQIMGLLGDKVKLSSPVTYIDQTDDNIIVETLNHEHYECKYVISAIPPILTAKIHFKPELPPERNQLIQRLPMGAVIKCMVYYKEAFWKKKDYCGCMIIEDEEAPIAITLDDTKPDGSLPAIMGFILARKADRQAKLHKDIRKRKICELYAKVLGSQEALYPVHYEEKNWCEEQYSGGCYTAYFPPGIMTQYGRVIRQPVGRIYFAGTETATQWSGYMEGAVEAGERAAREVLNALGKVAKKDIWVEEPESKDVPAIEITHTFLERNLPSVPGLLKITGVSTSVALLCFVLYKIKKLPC

SMILES | activity at 10 µM [6] | activity at 10 µM [7] | IC50 [8] | IC50 [9] | IC50 [10] | Ratio IC50 [14] | also measured
Cc1cccc(N2CC(CO)OC2=O)c1 (stereo not drawn) [TOLOXATONE] |  |  |  |  |  |  | activity at 2 µM [1]: 28.4%; activity at 2 µM [2]: 88.6%
COc1cc(O)c2c(=O)c(O)c(-c3ccc(O)cc3)oc2c1 [RHAMNOCITRIN] |  |  |  |  |  |  | IC50 [3]: 0.051 µM; Ratio IC50 [4]: 58.2
Oc1ccc(/C=C/c2cc(O)cc3c2[C@@H](c2cc(O)cc(O)c2)[C@H](c2ccc(O)cc2)O3)cc1 [EPSILON-VINIFERIN] |  |  |  |  |  |  | IC50 [5]: 19.6 µM
O=c1ccc2cc3ccoc3cc2o1 [PSORALEN] | 71% | 78.3% | > 60 µM | 29.5 µM | > 20 µM |  | 
C#CCN(C)CCCOc1ccc(Cl)cc1Cl [CLORGILINE] |  |  |  |  |  |  | activity at 0.01 µM [11]: 20.4%; activity at 0.01 µM [12]: 23.3%
C=C(C)C(O)CC/C(C)=C/COc1ccc2ccc(=O)oc2c1 (stereo not drawn) |  |  |  |  |  |  | IC50 [13]: 1.3 µM
COc1ccc(-c2oc3cc(O)cc(O)c3c(=O)c2O)cc1 [KAEMPFERIDE] |  |  |  |  | 0.19 µM | 0.89 | 
CC(C)=CCc1c(O)ccc2ccc(=O)oc12 [OSTHENOL] | 9.9% | 84.7% | > 60 µM | 25.3 µM | 0.74 µM | > 81.1 | activity at 1.5 µM [15]: 23.7%; activity at 1.5 µM [16]: 90.7%; Ki [17]: 0.26 µM
O=c1ccc2ccc3occc3c2o1 [ANGELICIN] | 12% | 27.2% | 2.73 µM | 25.4 µM | 0.88 µM | 3.1 | IC50 [18]: 9 µM; Ki [17]: 0.46 µM
COc1cc2ccc(=O)oc2cc1O [SCOPOLETIN] | 97% | 97.7% | > 60 µM | 35.8 µM | > 20 µM |  | 
CC(C)=CCOc1c2ccoc2cc2oc(=O)ccc12 [ISOIMPERATORIN] | 76.2% | 78.3% | > 60 µM | 25.6 µM | > 20 µM |  | 
O=c1ccc2c(ccc3ccoc32)o1 [BAKUCHICIN] | 18.6% | 37.8% | 5.44 µM | 35.7 µM | 1.78 µM | 3.1 | 
